Read-outs that look alike come from different tables or passages of the source.
Columns and labels:
[1] = test system: Plasmodium falciparum strain Dd2; experiment: SYBR Green I proliferation assay, asynchronous blood stage, Dd2; format: cell-based; settings: for EC50: read-out: Pf Dd2 EC50
HepG2 cells = experiment: Cytotoxicity assay; format: cell-based, human; settings: for EC50: read-out: HepG2 EC50
PfARK2 [2] = experiment: Radioactive kinase assay; format: biochemical, P. falciparum; settings: highest concentration tested 2 μM
PfARK2 [3] = experiment: ADP-Glo kinase assay; format: biochemical, P. falciparum; settings: up to 5 μM
P. falciparum Dd2 = experiment: Flow-cytometry rate of killing assay; format: cell-based, Plasmodium falciparum; settings: 10 × EC50
[4] = test system: Plasmodium falciparum strain 3D7; experiment: SYBR Green I proliferation assay, asynchronous blood stage, 3D7
human PLK1 = settings: read-out: PLK1 IC50, from prior publication or from Selleck Chemicals ref 15, 16; cited from earlier work
PfARK1 = experiment: KinaseSeeker split-luciferase competitive binding assay; set-up: species or system P. falciparum
PfARK3 = experiment: as above; set-up: species or system P. falciparum
CDPK2 = CDPK2 (Plasmodium falciparum, UniProt Q8ICR0); experiment: as above; set-up: species or system P. falciparum; settings: read-out: % activity remaining at 2.5 μM, CDPK2
CDPK5 = CDPK5 (Plasmodium falciparum, UniProt A0A5K1K8H0); experiment: as above; set-up: species or system P. falciparum; settings: read-out: % activity remaining at 2.5 μM, CDPK5
GSK3 = GSK3 (Plasmodium falciparum, UniProt O77344); experiment: as above; set-up: species or system P. falciparum; settings: read-out: % activity remaining at 2.5 μM, GSK3
Pf NEK1 = experiment: as above; set-up: species or system P. falciparum
Pf NEK3 (PF3D7_1201600) = Pf NEK3 (PF3D7_1201600) (Plasmodium falciparum, UniProt Q8I629); experiment: biochemical; format: binding; settings: for remaining activity at 2.5 µM: read-out: % activity remaining at 2.5 μM, NEK3
PK5 = PK5 (Plasmodium falciparum, UniProt P61075); experiment: KinaseSeeker split-luciferase competitive binding assay; set-up: species or system P. falciparum; settings: read-out: % activity remaining at 2.5 μM, PK5
PK6 = PK6 (Plasmodium falciparum, UniProt O77239); experiment: as above; set-up: species or system P. falciparum; settings: read-out: % activity remaining at 2.5 μM, PK6
PK9 = experiment: as above; set-up: species or system P. falciparum
PKB = PKB (Plasmodium falciparum, UniProt Q8I4W3); experiment: as above; set-up: species or system P. falciparum; settings: read-out: % activity remaining at 2.5 μM, PKB
[5] = test system: synchronized Dd2 parasites; experiment: Stage-specific assay; format: cell-based, Plasmodium falciparum; settings: 5 × EC50 applied later in the ring stage (18 HPI)
[6] = 72 h, average ± SEM, at least three biological replicates
[7] = Plasmodium falciparum, DD2, 72 h
[8] = 3D7, 72 h, read-out: Pf 3D7 EC50
[9] = 48 h, average ± SEM, at least three biological replicates

Sequence of CDPK5 (A0A5K1K8H0 whole entry): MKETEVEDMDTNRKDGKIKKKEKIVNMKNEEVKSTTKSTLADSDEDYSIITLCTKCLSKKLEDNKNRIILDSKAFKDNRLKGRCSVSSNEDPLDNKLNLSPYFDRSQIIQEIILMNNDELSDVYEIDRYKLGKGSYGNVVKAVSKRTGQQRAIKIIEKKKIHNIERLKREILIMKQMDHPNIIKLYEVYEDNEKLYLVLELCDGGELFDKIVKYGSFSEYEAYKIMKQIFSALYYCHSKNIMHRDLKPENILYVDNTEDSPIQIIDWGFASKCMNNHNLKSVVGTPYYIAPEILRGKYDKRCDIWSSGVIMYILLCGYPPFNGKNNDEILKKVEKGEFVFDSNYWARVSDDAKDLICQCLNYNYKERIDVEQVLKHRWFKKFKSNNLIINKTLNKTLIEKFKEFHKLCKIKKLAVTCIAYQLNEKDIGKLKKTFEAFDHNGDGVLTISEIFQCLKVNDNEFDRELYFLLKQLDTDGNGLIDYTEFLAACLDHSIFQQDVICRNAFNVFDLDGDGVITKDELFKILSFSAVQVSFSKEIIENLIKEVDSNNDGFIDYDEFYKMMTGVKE
Sequence of CDPK2 (Q8ICR0 whole entry): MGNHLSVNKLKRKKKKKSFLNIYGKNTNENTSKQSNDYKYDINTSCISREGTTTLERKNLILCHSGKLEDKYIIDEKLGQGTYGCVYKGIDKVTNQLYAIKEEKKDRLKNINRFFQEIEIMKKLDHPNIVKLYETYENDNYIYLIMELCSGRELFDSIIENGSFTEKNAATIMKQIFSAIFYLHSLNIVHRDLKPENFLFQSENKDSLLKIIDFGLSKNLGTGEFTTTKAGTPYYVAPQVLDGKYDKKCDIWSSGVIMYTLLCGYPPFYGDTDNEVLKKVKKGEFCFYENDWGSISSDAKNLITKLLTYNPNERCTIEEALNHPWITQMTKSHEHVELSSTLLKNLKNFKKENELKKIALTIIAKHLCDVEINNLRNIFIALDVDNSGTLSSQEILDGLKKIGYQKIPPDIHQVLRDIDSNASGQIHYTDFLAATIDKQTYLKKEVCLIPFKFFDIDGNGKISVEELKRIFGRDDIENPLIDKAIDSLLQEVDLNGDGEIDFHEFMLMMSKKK
Sequence of PK5 (P61075 whole entry): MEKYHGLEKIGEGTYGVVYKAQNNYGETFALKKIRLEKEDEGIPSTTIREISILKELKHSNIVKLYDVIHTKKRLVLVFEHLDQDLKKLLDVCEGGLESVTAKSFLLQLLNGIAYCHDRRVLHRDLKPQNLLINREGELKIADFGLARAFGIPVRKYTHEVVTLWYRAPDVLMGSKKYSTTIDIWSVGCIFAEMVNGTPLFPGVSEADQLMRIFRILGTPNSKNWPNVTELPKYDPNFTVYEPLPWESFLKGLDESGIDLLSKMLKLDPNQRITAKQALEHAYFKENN

For Nc1ccc(-c2ccc3ncc4ccc(=O)n(-c5cccc(C(F)(F)F)c5)c4c3c2)cn1 [torin2], the EC50 [1, 6] was 5.3 ± 0.3 nM.
In the case of CC[C@@H]1C(=O)N(C)c2cnc(Nc3ccc(C(=O)NC4CCN(C)CC4)cc3OC)nc2N1C1CCCC1 [BI-2536 (1), BI-2536], the EC50 [1, 7] is reported as 178 ± 12 nM, the EC50 (HepG2 cells; Homo sapiens, HepG2, 48 h) is reported as 3730 ± 520 nM and the “inhibitory effect in PfARK2” value (PfARK2 [2]) is reported as “neither compound displayed inhibitory effects”. For the same compound, the “activity in PfARK2” value (PfARK2 [3]) was “lack of activity”, the “compound incubation required for a full killing effect” value (from here on “compound incubation required”) (P. falciparum Dd2) was 24 to 48 h and the EC50 [4, 8] was 135 ± 35 nM. It also gave an EC50 ([4]; 3D7, read-out: EC50, 3D7 clone A10) of 288 nM.
For Cc1ncc(CCCN(C)C)cc1Nc1ncc2c(n1)-c1ccc(C(F)(F)F)cc1NC(=S)C2 [MLN0905 (13), MLN0905], the EC50 [1, 6] was 1820 ± 260 nM, the “Selectivity Index (SI) = HepG2 EC50/Dd2 EC50” value (“Selectivity Index” for short) (HepG2 cells) was 2.0 and the EC50 (HepG2 cells; [9]) was 3940 ± 110 nM. For the same compound, the IC50 (human PLK1) was 2 nM.
In the case of C[C@@H](Oc1cc(-n2cnc3ccc(CN4CCN(C)CC4)cc32)sc1C(N)=O)c1ccccc1C(F)(F)F [GSK461364 (12), GSK461364], the EC50 [1, 7] is reported as 533 ± 78 nM, the EC50 (HepG2 cells; Homo sapiens, HepG2, 48 h) is reported as 1910 ± 210 nM and the “% activity remaining at 2.5 μM, ARK1” value (PfARK1) is reported as 99.5%. For the same compound, the “% activity remaining at 2.5 μM, ARK3” value (PfARK3) was 96.2%, the remaining activity at 2.5 µM (CDPK2) was 100% and the remaining activity at 2.5 µM (CDPK5) was 100%. For the same compound, the remaining activity at 2.5 µM (GSK3) was 100%, the “% activity remaining at 2.5 μM, NEK1” value (Pf NEK1) was 100.0% and the IC50 (Pf NEK3 (PF3D7_1201600)) was 19 nM. For the same compound, the remaining activity at 2.5 µM (Pf NEK3 (PF3D7_1201600)) was 9.7%, the remaining activity at 2.5 µM (PK5) was 100% and the remaining activity at 2.5 µM (PK6) was 100%. For the same compound, the “% activity remaining at 2.5 μM, PK9” value (PK9) was 100.0%, the remaining activity at 2.5 µM (PKB) was 100% and the “inhibitory effect in PfARK2” value (PfARK2 [2]) was “neither compound displayed inhibitory effects”. The “compound incubation required” value (P. falciparum Dd2) was 24 to 48 h, the IC50 (human PLK1) was 2.2 nM and the EC50 [4, 8] was 1410 ± 77 nM.
For CN1CCN(c2ccc(OC(F)(F)F)c(Nc3ncc4c(n3)-c3c(c(C(N)=O)nn3CCO)CC4)c2)CC1 [NMS-P937 (15), NMS-P937], the EC50 [1, 6] was over 5000 nM, the “Selectivity Index” value (HepG2 cells) was […] and the EC50 (HepG2 cells; [9]) was 6010 ± 79 nM. For the same compound, the IC50 (human PLK1) was […].
In the case of COc1cc(OC)c(/C=C/S(=O)(=O)Cc2ccc(OC)c(NCC(=O)O)c2)c(OC)c1 [ON-01910 (16), ON-01910], the EC50 [1, 7] is reported as over 5000 nM, the “Selectivity Index” value (HepG2 cells) is reported as […] and the EC50 (HepG2 cells; Homo sapiens, HepG2, 48 h) is reported as 11900 nM. The IC50 (human PLK1) was […].
For COc1cc2ncn(-c3cc(OCc4ccccc4C(F)(F)F)c(C(N)=O)s3)c2cc1OC [GW843682 (17), GW843682], the EC50 [1, 6] is given as over 5000 nM, the EC50 (HepG2 cells; [9]) is given as over 25000 nM and the IC50 (human PLK1) is given as 2.2 nM.
In the case of SBE 13 [SBE 13 (14)], the EC50 [1, 6] is reported as 3570 ± 130 nM, the “Selectivity Index” value (HepG2 cells) is reported as over 7.0 and the EC50 (HepG2 cells; [9]) is reported as over 25000 nM. For the same compound, the IC50 (human PLK1) was 0.2 nM.
In the case of CC[C@@H]1C(=O)N(C)c2cnc(Nc3ccc(C(=O)N[C@H]4CC[C@H](N5CCN(CC6CC6)CC5)CC4)cc3OC)nc2N1C(C)C [BI-6727 (11), BI-6727], the “Resistance Index (RI) = Dd2 EC50/3D7 EC50” value [1] is reported as 0.81, the EC50 [1, 7] is reported as 230 ± 14 nM and the “Selectivity Index” value (HepG2 cells) is reported as 8.0. For the same compound, the EC50 (HepG2 cells; Homo sapiens, HepG2, 48 h) was 1930 ± 460 nM, the “% activity remaining at 2.5 μM, ARK1” value (PfARK1) was 100.0% and the “% activity remaining at 2.5 μM, ARK3” value (PfARK3) was 83.6%. For the same compound, the remaining activity at 2.5 µM (CDPK2) was 100%, the remaining activity at 2.5 µM (CDPK5) was 100% and the remaining activity at 2.5 µM (GSK3) was 100%. The “% activity remaining at 2.5 μM, NEK1” value (Pf NEK1) was 93.8%, the IC50 (Pf NEK3 (PF3D7_1201600)) was 130 nM and the remaining activity at 2.5 µM (Pf NEK3 (PF3D7_1201600)) was 11.1%. The remaining activity at 2.5 µM (PK5) was 100%, the remaining activity at 2.5 µM (PK6) was 67.3% and the “% activity remaining at 2.5 μM, PK9” value (PK9) was 100.0%. The remaining activity at 2.5 µM (PKB) was 49.3%, the “compound incubation required” value (P. falciparum Dd2) was 24 to 48 h and the “DNA replication (YOYO-1 signal)” value [5] was “delayed increase in the YOYO-1 signal at 54 h”. For the same compound, the IC50 (human PLK1) was 0.87 nM and the EC50 [4, 8] was 284 ± 52 nM.

Reference: paper PMC10106425 (ACS infectious diseases, 2023)
